Test results from US8962683B2, “Medium chain fatty acids applicable as anti-microbial agents” (Nutrition Sciences NV, priority 2004, dated 2015).

Legend:
E. coli K88 = experiment: Antimicrobial effect of C6, C8 and C10 on E. coli K88 in acidified feed suspension (gastric simulation); assay type: cell-based; conditions: 20% feed suspension pH 4.0
Method: In this example the anti-microbial activity of C6 and/or C8 and/or C10 MCFA against E. coli K88 was evaluated. The preparation of the test solution was as follows. to 1 kg feed (composition Table 6) an exactly determined quantity of E. coli K 88 was added. Subsequently, a suspension of 20% feed and 80% physiologic solution (0,85% saline) was created. To simulate the 20%-suspension in a gastric environment, a pH of 4.0 with 0.1 N HCl was established.
The acidified suspension was distributed in samples of 100 ml. Test substances were added in different concentrations as mentioned in table 7.
A microbial count at t=0 was executed. Samples were incubated during 3 h at 37° C. Samples were removed after 3 h and pH and microbial count were determined. The E. coli strains were counted on a Coli ID medium (Bio Mérieux, 42017).
The planned observations were: • a. Microbial count of control sample (blank) on t=0 • b. Microbial count of control sample (blank) and treatments on t=3 h. Table 8 depicts the calculated results proving the effectiveness of the anti-microbial effectiveness in the stomach of the different MCFA

[1] = test system: Campylobacter jejuni VC 5, VC 6 and VC 7 strains; experiment: Effect of MCFA on growth and survival of Campylobacter sp. isolated from poultry caecum; assay type: cell-based; conditions: medium pH 5.0; for antimicrobial activity against Campylobacter strains (CFU/ml, FIGS. 1-9): micro-aerobic, tested concentrations, 0 and 180 minutes; for relative antimicrobial effect on the tested Campylobacter strains: comparison between MCFA
Method: In this example, the MIC values of different MCFA against Campylobacter sp. isolated from poultry caecum were determined.
Three tenfold dilutions of a 10% suspension of three types of MCFA's (C6, C8 and C10) were prepared in distilled water. To obtain the desired concentrations, 1.5, 0.75 and 0.36 ml of these dilutions were pipetted in petri dishes and carefully mixed with 15 ml molten growth medium. A suitable fermentation medium was used with a pH of 5.0.
Isolated Campylobacter strains were grown in suitable fermentation medium and incubated at 37° C. under micro-aerobic conditions by evacuating 80% of the normal atmosphere and introducing a gas mixture of 8% CO2, 8% H2 and 84% N2 into the jar. Inocula were prepared by diluting the cultures in buffered saline to a density of 0.5 on the McFarland turbidity scale and diluted 40-fold before inoculating. Plates were seeded with inoculum. Control plates of media without the product were inoculated at the end of the procedure. All plates were incubated at 37° C. under appropriate atmosphere. Readings were performed after 48 h. Campylobacter was counted after incubation.
These figures represent the number of colony forming units (CFU)/ml of Campylobacter jejuni VC 5 strain (FIGS. 1, 4, 7), Campylobacter jejuni VC 6 strain (FIGS. 2, 5, 8), and Campylobacter jejuni VC 7 strain (FIGS. 3, 6, 9) at various concentrations of MCFA and at two different time points (0 and 180 minutes).

[2] = 0.06% test substance, T = 3 h at 37° C.
[3] = 0.125% test substance, T = 3 h at 37° C.
[4] = 0.250% test substance, T = 3 h at 37° C.
[5] = 0.500% test substance, T = 3 h at 37° C.

| Structure (SMILES) | Microbial count (E. coli K88; 0.06% test substance, T = 0 h) | Microbial count (E. coli K88; [2]) | Microbial count (E. coli K88; 0.125% test substance, T = 0 h) | Microbial count (E. coli K88; [3]) | Microbial count (E. coli K88; 0.250% test substance, T = 0 h) | Microbial count (E. coli K88; [4]) | Microbial count (E. coli K88; 0.500% test substance, T = 0 h) | Microbial count (E. coli K88; [5]) | antimicrobial activity against Campylobacter strains (CFU/ml, FIGS. 1-9) [1] | relative antimicrobial effect on the tested Campylobacter strains [1] |
| --- | --- | --- | --- | --- | --- | --- | --- | --- | --- | --- |
| CCCCCC(=O)O [C6, caproic acid] | 5.708 Log (CFU/g) | 4.160 Log (CFU/g) | 5.700 Log (CFU/g) | Total inhibition | 4.920 Log (CFU/g) | Total inhibition | Total inhibition | Total inhibition | show antimicrobial activities | – |
| CCCCCCCC(=O)O [C8, caprylic acid] | 5.649 Log (CFU/g) | Total inhibition | 5.415 Log (CFU/g) | Total inhibition | Total inhibition | Total inhibition | Total inhibition | Total inhibition | show antimicrobial activities | stronger antimicrobial effect compared to C6 |
| CCCCCCCCCC(=O)O [C10, capric acid] | 6.964 Log (CFU/g) | 6.854 Log (CFU/g) | 6.927 Log (CFU/g) | 6.707 Log (CFU/g) | 6.966 Log (CFU/g) | 4.708 Log (CFU/g) | 6.816 Log (CFU/g) | Total inhibition | show antimicrobial activities | stronger antimicrobial effect compared to C8 |
